Assay: Dissociation constant, pKa of the compound
Type: physicochemical

Row | pKa | Compound
1 | 6.6 | NC(=O)CNC1CCC(OCc2cc(C(F)(F)F)cc(C(F)(F)F)c2)C1c1ccccc1 (configuration not stated)
2 | 6.2 | C[C@@H](O[C@H]1CC[C@@H](N(C)Cc2c[nH]c(O)n2)[C@@H]1c1ccc(F)cc1)c1cc(C(F)(F)F)cc(C(F)(F)F)c1
3 | 5.3 | C[C@@H](O[C@H]1CC[C@@H](N(C)CC(N)=O)[C@@H]1c1ccc(F)cc1)c1cc(C(F)(F)F)cc(C(F)(F)F)c1
4 | 5.8 | CN(CC(N)=O)C1CCC(OCc2cc(C(F)(F)F)cc(C(F)(F)F)c2)C1c1ccccc1 (configuration not stated)
5 | 4.7 | C[C@@H](O[C@H]1CC[C@@H](N(C)Cc2n[nH]c(O)n2)[C@@H]1c1ccc(F)cc1)c1cc(C(F)(F)F)cc(C(F)(F)F)c1
6 | 5.3 | CNC(=O)CN(C)[C@@H]1CC[C@H](O[C@H](C)c2cc(C(F)(F)F)cc(C(F)(F)F)c2)[C@H]1c1ccc(F)cc1
7 | < 3.5 | C[C@@H](O[C@H]1OCCN(Cc2n[nH]c(=O)[nH]2)[C@H]1c1ccc(F)cc1)c1cc(C(F)(F)F)cc(C(F)(F)F)c1 [APREPITANT]
